Measurements taken from ChEMBL document CHEMBL5678818, “Discovery of potent SOS1 inhibitors that block RAS activation via disruption of the RAS-SOS1 interaction” (Proc Natl Acad Sci U S A, 2019).

How the values were obtained:
[1] = target: Serine/threonine-protein kinase WNK4 (Homo sapiens) (UniProt Q96J92); test: Inhibition of WNK4 (unknown origin) assessed as residual activity at 1000 nM by KINOMEscan analysis relative to control
[2] = target: T1, Bone morphogenetic protein receptor type-2 (Homo sapiens) (UniProt Q13873); test: Inhibition of BMPR2 (unknown origin) assessed as residual activity at 100 nM by KINOMEscan analysis relative to control
T1 sequence (whole entry): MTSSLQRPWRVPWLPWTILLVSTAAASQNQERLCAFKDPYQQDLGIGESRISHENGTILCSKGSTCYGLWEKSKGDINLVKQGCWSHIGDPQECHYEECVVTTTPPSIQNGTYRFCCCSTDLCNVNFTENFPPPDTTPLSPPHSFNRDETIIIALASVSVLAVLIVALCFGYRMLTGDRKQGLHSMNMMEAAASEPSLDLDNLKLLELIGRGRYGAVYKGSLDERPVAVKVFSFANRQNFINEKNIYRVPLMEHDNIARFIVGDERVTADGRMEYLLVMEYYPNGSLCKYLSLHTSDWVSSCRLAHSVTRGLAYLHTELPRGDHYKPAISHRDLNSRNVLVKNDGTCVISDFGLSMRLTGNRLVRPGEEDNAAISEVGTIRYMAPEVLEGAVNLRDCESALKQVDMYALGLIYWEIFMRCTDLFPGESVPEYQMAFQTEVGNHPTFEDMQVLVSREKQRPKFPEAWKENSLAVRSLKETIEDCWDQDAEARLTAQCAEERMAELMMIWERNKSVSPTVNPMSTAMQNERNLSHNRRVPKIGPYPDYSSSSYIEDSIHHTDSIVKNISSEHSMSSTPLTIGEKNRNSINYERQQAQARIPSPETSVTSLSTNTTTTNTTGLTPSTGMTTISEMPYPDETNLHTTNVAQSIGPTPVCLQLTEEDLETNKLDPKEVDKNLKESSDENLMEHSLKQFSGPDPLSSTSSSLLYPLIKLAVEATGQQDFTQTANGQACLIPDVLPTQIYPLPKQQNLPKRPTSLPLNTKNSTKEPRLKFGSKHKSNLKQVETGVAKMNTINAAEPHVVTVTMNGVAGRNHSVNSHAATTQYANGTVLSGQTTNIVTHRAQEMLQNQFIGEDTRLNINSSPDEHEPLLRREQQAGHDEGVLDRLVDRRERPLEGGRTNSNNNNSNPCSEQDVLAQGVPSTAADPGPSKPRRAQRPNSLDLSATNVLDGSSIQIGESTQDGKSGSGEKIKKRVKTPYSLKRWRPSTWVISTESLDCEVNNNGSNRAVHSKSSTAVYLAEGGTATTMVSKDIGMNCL

[3] = target: Death-associated protein kinase 2 (Homo sapiens) (UniProt Q9UIK4); test: Inhibition of DAPK2 (unknown origin) assessed as residual activity at 100 nM by KINOMEscan analysis relative to control
Sequence of Death-associated protein kinase 2 (Homo sapiens) (Q9UIK4 whole entry, looked up, the tested form may be a part): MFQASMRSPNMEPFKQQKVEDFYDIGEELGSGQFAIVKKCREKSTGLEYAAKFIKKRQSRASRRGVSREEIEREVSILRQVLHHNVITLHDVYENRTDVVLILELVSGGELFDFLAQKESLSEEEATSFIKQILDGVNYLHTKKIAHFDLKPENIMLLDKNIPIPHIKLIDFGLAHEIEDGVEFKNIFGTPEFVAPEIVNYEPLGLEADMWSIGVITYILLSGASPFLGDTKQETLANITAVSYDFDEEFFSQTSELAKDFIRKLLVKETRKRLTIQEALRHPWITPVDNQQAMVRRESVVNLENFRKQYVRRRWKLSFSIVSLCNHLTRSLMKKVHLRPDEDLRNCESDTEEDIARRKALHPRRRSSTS

[4] = target: Ribosomal protein S6 kinase alpha-3 (Homo sapiens) (UniProt P51812); test: Inhibition of N-terminal RSK2 kinetic domain 1 (unknown origin) assessed as residual activity at 100 nM by KINOMEscan analysis relative to control
Sequence of Ribosomal protein S6 kinase alpha-3 (Homo sapiens) (P51812 whole entry, the tested form may be a part, canonical isoform): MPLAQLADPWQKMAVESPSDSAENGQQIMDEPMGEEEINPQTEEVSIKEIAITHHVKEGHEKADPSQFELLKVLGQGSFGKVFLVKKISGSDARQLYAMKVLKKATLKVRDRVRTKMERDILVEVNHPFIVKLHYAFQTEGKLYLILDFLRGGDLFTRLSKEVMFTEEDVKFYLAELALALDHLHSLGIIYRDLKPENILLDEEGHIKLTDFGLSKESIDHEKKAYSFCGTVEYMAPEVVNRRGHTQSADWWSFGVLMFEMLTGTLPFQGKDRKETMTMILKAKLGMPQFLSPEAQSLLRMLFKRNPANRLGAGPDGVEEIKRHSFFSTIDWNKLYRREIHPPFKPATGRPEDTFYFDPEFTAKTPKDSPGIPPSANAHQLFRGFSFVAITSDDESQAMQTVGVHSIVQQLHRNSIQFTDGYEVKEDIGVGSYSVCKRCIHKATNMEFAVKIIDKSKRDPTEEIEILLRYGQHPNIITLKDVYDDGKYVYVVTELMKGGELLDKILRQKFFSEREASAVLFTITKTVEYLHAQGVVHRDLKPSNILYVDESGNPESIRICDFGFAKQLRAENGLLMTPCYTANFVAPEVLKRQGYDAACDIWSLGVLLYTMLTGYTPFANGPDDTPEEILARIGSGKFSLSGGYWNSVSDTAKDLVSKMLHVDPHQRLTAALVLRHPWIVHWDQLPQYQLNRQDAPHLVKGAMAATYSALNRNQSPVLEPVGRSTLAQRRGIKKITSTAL

[5] = target: Casein kinase I isoform alpha (Homo sapiens) (UniProt P48729); test: Inhibition of CSNK1A1 (unknown origin) assessed as residual activity at 100 nM by KINOMEscan analysis relative to control
Sequence of Casein kinase I isoform alpha (Homo sapiens) (P48729 2-337 limits assumed): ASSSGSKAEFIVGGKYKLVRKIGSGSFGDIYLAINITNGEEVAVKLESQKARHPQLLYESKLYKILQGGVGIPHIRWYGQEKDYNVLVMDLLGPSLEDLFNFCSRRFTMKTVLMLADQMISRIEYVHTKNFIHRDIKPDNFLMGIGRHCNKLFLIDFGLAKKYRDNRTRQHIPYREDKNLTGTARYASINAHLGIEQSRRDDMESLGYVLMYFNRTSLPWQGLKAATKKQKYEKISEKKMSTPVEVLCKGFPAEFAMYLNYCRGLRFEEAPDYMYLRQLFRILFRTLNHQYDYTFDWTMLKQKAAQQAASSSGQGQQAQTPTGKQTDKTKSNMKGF

[6] = target: T2, Serine/threonine-protein kinase Sgk2 (Homo sapiens) (UniProt Q9HBY8); test: Inhibition of SGK2 (unknown origin) assessed as residual activity at 100 nM by KINOMEscan analysis relative to control
T2 sequence (whole entry): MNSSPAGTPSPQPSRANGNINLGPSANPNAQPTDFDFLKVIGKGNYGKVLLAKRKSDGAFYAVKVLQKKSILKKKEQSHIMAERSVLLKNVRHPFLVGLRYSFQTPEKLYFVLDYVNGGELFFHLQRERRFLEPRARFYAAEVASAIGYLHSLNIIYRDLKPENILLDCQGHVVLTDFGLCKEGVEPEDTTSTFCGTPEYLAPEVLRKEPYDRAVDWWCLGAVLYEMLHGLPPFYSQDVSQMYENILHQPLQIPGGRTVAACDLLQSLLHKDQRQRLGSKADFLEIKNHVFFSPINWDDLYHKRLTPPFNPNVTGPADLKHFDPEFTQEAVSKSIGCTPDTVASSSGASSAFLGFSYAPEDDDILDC

[7] = target: Mast/stem cell growth factor receptor Kit (Homo sapiens) (UniProt P10721); test: Inhibition of autoinhibited KIT (unknown origin) assessed as residual activity at 100 nM by KINOMEscan analysis relative to control
Sequence of Mast/stem cell growth factor receptor Kit (Homo sapiens) (P10721 whole entry, the tested form may be a part): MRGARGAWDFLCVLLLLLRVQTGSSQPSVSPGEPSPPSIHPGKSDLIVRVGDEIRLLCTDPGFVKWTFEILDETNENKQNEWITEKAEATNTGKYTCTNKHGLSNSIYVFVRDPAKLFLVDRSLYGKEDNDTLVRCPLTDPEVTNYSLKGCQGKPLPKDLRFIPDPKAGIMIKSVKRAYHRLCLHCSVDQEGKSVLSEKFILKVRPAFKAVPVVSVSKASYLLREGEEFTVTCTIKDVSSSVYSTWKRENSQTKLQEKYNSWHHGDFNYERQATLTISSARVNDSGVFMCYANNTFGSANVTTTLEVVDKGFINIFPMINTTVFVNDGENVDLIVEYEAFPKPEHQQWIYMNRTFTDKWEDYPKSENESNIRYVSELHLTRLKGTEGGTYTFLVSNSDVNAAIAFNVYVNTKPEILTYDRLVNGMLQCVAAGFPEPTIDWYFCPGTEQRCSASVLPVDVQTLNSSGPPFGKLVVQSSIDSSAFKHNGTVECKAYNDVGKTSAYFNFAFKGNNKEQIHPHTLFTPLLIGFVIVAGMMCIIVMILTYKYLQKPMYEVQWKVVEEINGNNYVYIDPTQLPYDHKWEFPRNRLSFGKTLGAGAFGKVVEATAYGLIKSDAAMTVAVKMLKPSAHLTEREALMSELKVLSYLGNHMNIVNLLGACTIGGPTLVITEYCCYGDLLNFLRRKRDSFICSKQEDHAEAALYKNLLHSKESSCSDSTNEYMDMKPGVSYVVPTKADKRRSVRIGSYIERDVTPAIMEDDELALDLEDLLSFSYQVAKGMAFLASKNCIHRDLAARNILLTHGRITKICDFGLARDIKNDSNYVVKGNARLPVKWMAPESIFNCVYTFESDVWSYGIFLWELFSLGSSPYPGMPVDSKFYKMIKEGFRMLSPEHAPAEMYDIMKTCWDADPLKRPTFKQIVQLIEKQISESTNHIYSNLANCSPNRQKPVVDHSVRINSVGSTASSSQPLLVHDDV

[8] = target: T3, Ankyrin repeat and protein kinase domain-containing protein 1 (Homo sapiens) (UniProt Q8NFD2); test: Inhibition of ANKK1 (unknown origin) assessed as residual activity at 100 nM by KINOMEscan analysis relative to control
T3 sequence (whole entry): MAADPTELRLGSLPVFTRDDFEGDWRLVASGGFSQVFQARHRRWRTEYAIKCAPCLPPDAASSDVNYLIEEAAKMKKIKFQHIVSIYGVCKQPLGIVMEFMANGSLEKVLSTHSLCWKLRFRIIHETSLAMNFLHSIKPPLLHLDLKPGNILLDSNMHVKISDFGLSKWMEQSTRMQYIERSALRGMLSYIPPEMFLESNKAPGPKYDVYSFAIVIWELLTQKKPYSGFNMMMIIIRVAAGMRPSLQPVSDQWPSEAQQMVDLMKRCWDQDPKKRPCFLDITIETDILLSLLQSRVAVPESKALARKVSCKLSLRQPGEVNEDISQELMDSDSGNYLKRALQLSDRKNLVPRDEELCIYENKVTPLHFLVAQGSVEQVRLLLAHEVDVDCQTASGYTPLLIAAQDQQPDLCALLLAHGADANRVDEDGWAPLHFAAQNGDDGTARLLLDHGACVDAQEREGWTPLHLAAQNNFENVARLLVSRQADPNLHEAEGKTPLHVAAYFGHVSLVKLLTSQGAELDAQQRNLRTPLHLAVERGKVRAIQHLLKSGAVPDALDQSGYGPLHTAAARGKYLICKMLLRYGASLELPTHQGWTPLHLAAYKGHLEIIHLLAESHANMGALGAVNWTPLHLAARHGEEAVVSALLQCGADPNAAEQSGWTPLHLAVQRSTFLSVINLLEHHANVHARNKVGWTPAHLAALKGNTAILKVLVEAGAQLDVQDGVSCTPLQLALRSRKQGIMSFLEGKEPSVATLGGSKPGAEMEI

[9] = tested on: Epidermal growth factor receptor (Homo sapiens), P00533 [L858R,T790M]; test: Inhibition of EGFR L858R/T790M mutant (unknown origin) assessed as residual activity at 100 nM by KINOMEscan analysis relative to control
[10] = tested on: Epidermal growth factor receptor (Homo sapiens), P00533 [T790M]; test: Inhibition of EGFR T790M mutant (unknown origin) assessed as residual activity at 100 nM by KINOMEscan analysis relative to control

Sequence of Serine/threonine-protein kinase WNK4 (Homo sapiens) (Q96J92 whole entry): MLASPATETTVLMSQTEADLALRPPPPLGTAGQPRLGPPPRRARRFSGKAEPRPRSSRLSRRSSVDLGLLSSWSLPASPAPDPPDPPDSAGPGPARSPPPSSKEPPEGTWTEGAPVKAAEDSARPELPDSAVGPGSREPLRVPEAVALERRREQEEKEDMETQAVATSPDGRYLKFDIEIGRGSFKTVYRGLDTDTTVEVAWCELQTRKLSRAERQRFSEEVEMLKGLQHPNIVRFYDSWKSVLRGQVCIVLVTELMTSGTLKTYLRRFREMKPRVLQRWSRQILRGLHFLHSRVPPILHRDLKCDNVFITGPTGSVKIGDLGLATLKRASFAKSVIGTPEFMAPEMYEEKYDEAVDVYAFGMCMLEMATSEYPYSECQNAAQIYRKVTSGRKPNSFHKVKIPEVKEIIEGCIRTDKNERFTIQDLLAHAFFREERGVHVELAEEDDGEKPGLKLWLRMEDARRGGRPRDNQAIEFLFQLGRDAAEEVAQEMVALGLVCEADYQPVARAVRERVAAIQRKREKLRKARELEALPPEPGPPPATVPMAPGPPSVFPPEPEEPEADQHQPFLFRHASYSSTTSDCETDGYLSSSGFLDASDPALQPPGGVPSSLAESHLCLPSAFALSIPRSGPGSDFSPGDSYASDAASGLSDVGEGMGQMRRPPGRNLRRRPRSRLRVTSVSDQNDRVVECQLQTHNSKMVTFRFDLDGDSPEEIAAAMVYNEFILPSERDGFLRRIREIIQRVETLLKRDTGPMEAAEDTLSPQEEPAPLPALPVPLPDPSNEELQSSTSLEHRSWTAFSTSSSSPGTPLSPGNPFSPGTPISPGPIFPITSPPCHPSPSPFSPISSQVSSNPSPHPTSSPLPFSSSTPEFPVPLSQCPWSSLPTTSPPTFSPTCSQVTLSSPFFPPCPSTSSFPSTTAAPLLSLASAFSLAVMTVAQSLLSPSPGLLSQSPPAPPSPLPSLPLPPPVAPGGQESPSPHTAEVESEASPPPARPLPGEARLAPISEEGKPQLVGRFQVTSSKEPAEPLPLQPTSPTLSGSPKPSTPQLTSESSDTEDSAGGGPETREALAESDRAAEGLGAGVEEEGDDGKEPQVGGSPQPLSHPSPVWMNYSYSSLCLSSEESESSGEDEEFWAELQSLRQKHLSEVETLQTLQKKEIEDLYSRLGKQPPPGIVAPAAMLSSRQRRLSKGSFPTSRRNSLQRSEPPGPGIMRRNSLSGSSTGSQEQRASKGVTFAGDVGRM

Structure (SMILES) | Activity [1] [%] | Activity [2] [%] | Activity [3] [%] | Activity [4] [%] | Activity [5] [%] | Activity [6] [%] | Activity [7] [%] | Activity [8] [%] | Activity [9] [%] | Activity [10] [%]
COc1cc2nc(C)nc(N[C@H](C)c3cccc(-c4cn[nH]c4)c3)c2cc1OC | 100 | – | – | – | – | – | – | – | – | –
COc1cc2ncnc(N[C@H](C)c3cccc4ccccc34)c2cc1OC | – | 97 | 100 | 70 | 93 | 97 | 91 | 97 | 85 | 96
